Seven molecules from ChEMBL document CHEMBL5316326, “Discovery of a Novel Covalent EZH2 Inhibitor Based on Tazemetostat Scaffold for the Treatment of Ovarian Cancer” (J Med Chem, 2023) can be followed below.

Assay [1] concerns PA-1. Put plainly: Antiproliferative activity against human PA-1 cells assessed as reduction in cell viability at 10 uM incubated for 3 days followed by compound washout and measured after 4 days by microscopy analysis. The settings on record: time 3.0 day. The assay is classed as functional, cell-based.
In another assay the test system is OAW-42. Put plainly: Antiproliferative activity against human OAW-42 cells assessed as inhibition of cell proliferation incubated for 72 hrs by MTT assay. In kind it is functional, cell-based. The settings on record: OAW-42, 72 h. On the technique in general: Tetrazolium dyes change colour on reduction, which living cells bring about.
A further assay relates to BT-549. Put plainly: Antiproliferative activity against human BT-549 cells assessed as inhibition of cell proliferation incubated for 72 hrs by MTT assay. The assay is classed as functional, cell-based. Particulars: BT-549, 72 h.
The subject of a further assay is HEY. Put plainly: Antiproliferative activity against human HEY cells assessed as inhibition of cell proliferation incubated for 72 hrs by MTT assay. In kind it is functional, cell-based.
The test system of another assay is ES-2. Put plainly: Antiproliferative activity against human ES2 cells assessed as inhibition of cell proliferation incubated for 72 hrs by MTT assay. Particulars: ES-2, 72 h. In kind it is functional, cell-based.
In assay [2] the test system is PA-1. Put plainly: Antiproliferative activity against human PA-1 cells assessed as inhibition of cell proliferation incubated for 72 hrs by MTT assay. In kind it is functional, cell-based. Particulars: PA-1, 72 h.
Another assay deals with OVCAR-3. Put plainly: Antiproliferative activity against human OVCAR-3 cells assessed as inhibition of cell proliferation incubated for 72 hrs by MTT assay. In kind it is functional, cell-based. The settings on record: OVCAR-3, 72 h.
The subject of the next assay is SK-BR-3. Put plainly: Antiproliferative activity against human SK-BR-3 cells assessed as inhibition of cell proliferation incubated for 72 hrs by MTT assay. The assay is classed as functional, cell-based. Particulars: SK-BR-3, 72 h.
Assay [3] relates to PA-1. Put plainly: Antitumor activity against human PA-1 cells xenografted in BALB/C nude mouse assessed as tumor growth inhibition at 150 mg/kg,po BID for 21 days. The settings on record: PA-1, 504 h, time 21 day, read-out: TGI. The assay is classed as functional.
For another assay, the system named is MCF7. Put plainly: Antiproliferative activity against human MCF7 cells assessed as inhibition of cell proliferation incubated for 72 hrs by MTT assay. Particulars: MCF7, 72 h. The assay is classed as functional, cell-based.
The subject of assay [4] is A2780. Put plainly: Antiproliferative activity against human A2780 cells assessed as inhibition of cell proliferation incubated for 72 hrs by MTT assay. The settings on record: A2780, 72 h. In kind it is functional, cell-based.
For a further assay, the system named is SK-OV-3. Put plainly: Antiproliferative activity against human SK-OV-3 cells assessed as inhibition of cell proliferation incubated for 72 hrs by MTT assay. The assay is classed as functional, cell-based. Particulars: SK-OV-3, 72 h.
A further assay deals with 4T1. Put plainly: Antiproliferative activity against mouse 4T1 cells assessed as inhibition of cell proliferation incubated for 72 hrs by MTT assay. In kind it is functional, cell-based. The settings on record: 4T1, 72 h.
Assay [5] in a line: Antiproliferative activity against human COV362 cells assessed as inhibition of cell proliferation incubated for 72 hrs by MTT assay. In kind it is functional, cell-based. Particulars: COV362, 72 h.
For a further assay, the system named is NCI-H1703. Put plainly: Antiproliferative activity against human NCI-H1703 cells assessed as inhibition of cell proliferation incubated for 72 hrs by MTT assay. In kind it is functional, cell-based. Particulars: NCI-H1703, 72 h.
A further assay relates to A549. Put plainly: Antiproliferative activity against human A549 cells assessed as inhibition of cell proliferation incubated for 72 hrs by MTT assay. In kind it is functional, cell-based. The settings on record: A549, 72 h.
The target of assay [6] is T1, Histone-lysine N-methyltransferase EZH2 (Homo sapiens, UniProt Q15910). Put plainly: Inhibition of wild type EZH2 (unknown origin) by AlphaLlSA assay.
Target sequence in this assay (Q15910 whole entry, the tested form may be a part): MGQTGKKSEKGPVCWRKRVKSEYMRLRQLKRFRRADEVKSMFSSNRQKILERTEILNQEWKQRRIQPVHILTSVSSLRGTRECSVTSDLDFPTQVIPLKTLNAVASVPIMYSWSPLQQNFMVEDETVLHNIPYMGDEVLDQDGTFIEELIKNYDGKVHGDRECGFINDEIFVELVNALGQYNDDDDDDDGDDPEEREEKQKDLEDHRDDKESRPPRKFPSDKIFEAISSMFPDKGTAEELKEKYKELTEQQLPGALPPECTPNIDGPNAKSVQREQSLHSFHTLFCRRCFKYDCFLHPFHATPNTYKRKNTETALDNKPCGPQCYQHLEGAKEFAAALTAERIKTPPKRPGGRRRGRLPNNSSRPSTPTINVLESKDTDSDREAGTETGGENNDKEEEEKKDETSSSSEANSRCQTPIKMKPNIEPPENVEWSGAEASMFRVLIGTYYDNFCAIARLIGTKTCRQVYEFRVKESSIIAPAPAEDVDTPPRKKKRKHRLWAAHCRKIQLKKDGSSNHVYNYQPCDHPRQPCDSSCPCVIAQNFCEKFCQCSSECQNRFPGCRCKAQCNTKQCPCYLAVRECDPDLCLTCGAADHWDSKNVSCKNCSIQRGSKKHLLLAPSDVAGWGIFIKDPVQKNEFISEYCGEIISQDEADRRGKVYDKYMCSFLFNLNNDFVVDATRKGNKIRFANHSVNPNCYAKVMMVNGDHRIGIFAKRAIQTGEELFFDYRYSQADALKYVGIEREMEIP
Assay [7] concerns the target T1, Histone-lysine N-methyltransferase EZH2. Put plainly: Binding affinity to wild type recombinant EZH2 (494 to 737 residues) (unknown origin) expressed in Escherichia coli assessed as adduct formation incubated for 2 hrs by LC-MS analysis.
Target sequence in this assay (Q15910 whole entry, looked up, the tested form may be a part): as the sequence (Q15910 whole entry, the tested form may be a part) above
For assay [8], the system named is PA-1. Put plainly: Inhibition of colony formation in human PA-1 cells assessed as reduction in number of colonies at 0.25 to 10 uM incubated for 14 days with medium change every 3 days by crystal violet staining method. The assay is classed as functional, cell-based. The settings on record: dose 0.25-10 µM, time 14.0 day.
For assay [9], the system named is A2780. Put plainly: Inhibition of colony formation in human A2780 cells assessed as reduction in number of colonies at 0.25 to 10 uM incubated for 14 days with medium change every 3 days by crystal violet staining method. Particulars: dose 0.25-10 µM, time 14.0 day. In kind it is functional, cell-based.
The target of assay [10] is T1, Histone-lysine N-methyltransferase EZH2. Put plainly: Inhibition of EZH2 methyltransferase activity in human A2780 cells assessed as reduction in H3K27me3 level incubated for 3 days by Western blot analysis. In kind it is cell-based. In general terms: Immunoblotting shows a protein as a band on a membrane.
Target sequence in this assay (Q15910 whole entry, the tested form may be a part): as above
The subject of assay [11] is PA-1. Put plainly: Inhibition of colony formation in human PA-1 cells assessed as reduction in size of colonies at 0.25 to 10 uM incubated for 14 days with medium change every 3 days by crystal violet staining method. The assay is classed as functional, cell-based. Particulars: dose 0.25-10 µM, time 14.0 day.
In assay [12] the test system is A2780. Put plainly: Inhibition of colony formation in human A2780 cells assessed as reduction in size of colonies at 0.25 to 10 uM incubated for 14 days with medium change every 3 days by crystal violet staining method. In kind it is functional, cell-based. Particulars: dose 0.25-10 µM, time 14.0 day.

Activity calls are given as the source filed them. No cut-off for these calls is given here.

Take `CCN(c1cc(-c2ccc(CN3CCOCC3)cc2)cc(C(=O)NCc2c(C)cc(C)[nH]c2=O)c1C)C1CCOCC1` [TAZEMETOSTAT]: the result with PA-1 [1] was inactive. Moreover, the IC50 (in general, the concentration needed to halve the response being measured) with OAW-42 was over 100 µM; with BT-549 it was 58.2 µM; with HEY, over 100 µM; in the assay with ES-2, 79 µM; in the assay with PA-1 [2] it was 46.6 µM; with OVCAR-3, over 100 µM. Moreover, the IC50 in the assay on SK-BR-3 was 67.1 µM; in the assay with MCF7 it was over 100 µM; in the assay with A2780 [4], 47 µM; with SK-OV-3 it was 89.8 µM; with 4T1, 29.3 µM; in assay [5], over 100 µM. The half-inhibitory concentration (IC50) in the assay on NCI-H1703 and in the assay with A549 was over 100 µM throughout. In addition, the inhibition in vivo at 150 mg/kg with PA-1 [3] was 56.8%.

For the molecule `CCOCCNC(=O)/C(C)=C/C[C@@]12OC(C)(C)C3C[C@@H](C=C4C(=O)c5c(O)c(C/C=C(\C)CCC=C(C)C)c(O)c(CC=C(C)C)c5O[C@]431)C2=O` (single isomer, unassigned), in assay [6], the IC50 came to 1.1 µM.

`C=CC(=O)NCc1ccc(-c2cc(C(=O)NCc3c4c(c(C)[nH]c3=O)CCCC4)c(C)c(N(CC)C3CCOCC3)c2)cc1` gave an IC50 in assay [6] of 0.0108 µM. In [7], the result was inactive.

Take `CC[C@H](C)n1cc(C)c2c(C(=O)NCc3c(C)cc(C)[nH]c3=O)cc(-c3ccc(N4CCNCC4)nc3)cc21` [GSK2816126]: the IC50 with OAW-42 is 55.4 µM; in the assay with BT-549 it was 23.3 µM; with HEY, over 100 µM; in the assay with ES-2, 32.2 µM; in the assay on PA-1 [2], 12.2 µM; with OVCAR-3 it was 29.8 µM. The concentration for half-maximal inhibition (IC50) in the assay with SK-BR-3 is 15.5 µM; in the assay with MCF7 it was 18.8 µM; in the assay on A2780 [4], 12 µM; in the assay with SK-OV-3 it was 68.4 µM; in the assay on 4T1, 10.4 µM; in assay [5], over 100 µM. Moreover, the IC50 with NCI-H1703 was over 100 µM; with A549, 23 µM.

In the case of `C=CC(=O)Nc1cccc(-c2cc(C(=O)NCc3c(C)cc(C)[nH]c3=O)c(C)c(N(CC)C3CCOCC3)c2)c1`, the IC50 in the assay on OAW-42 is over 100 µM; in the assay with BT-549, 60.2 µM; with HEY it was 66.7 µM; in the assay with ES-2 it was 38.6 µM; in the assay with PA-1 [2] it was 24.7 µM; in [6] it was 0.00164 µM. Also, the IC50 with OVCAR-3 was over 100 µM; in the assay on SK-BR-3, 66.2 µM; with MCF7, 63.3 µM; in the assay with A2780 [4] it was 15.7 µM; with SK-OV-3 it was 41.8 µM; in the assay with 4T1, 31 µM. Besides, the IC50 in [5] is over 100 µM; in the assay with NCI-H1703, 37.4 µM; in the assay with A549, 33.3 µM.

With `CCC(=O)Nc1ccc(C)c(-c2cc(C(=O)NCc3c(C)cc(C)[nH]c3=O)c(C)c(N(CC)C3CCOCC3)c2)c1`, the result (in the assay with PA-1 [1]; in assay [7]) was inactive. The half-maximal inhibitory concentration (IC50) with OAW-42 was over 100 µM; in the assay on BT-549 it was over 100 µM; in the assay with HEY, over 100 µM; in the assay with ES-2, 89.5 µM; in the assay with PA-1 [2] it was 78.3 µM; in assay [6], 0.00301 µM. The IC50 is 4.72 µM in assay [10]; over 100 µM in the assay on OVCAR-3; over 100 µM in the assay with SK-BR-3; over 100 µM with MCF7; 60.4 µM in the assay with A2780 [4]; over 100 µM with SK-OV-3. The IC50 is over 100 µM in the assay with 4T1, over 100 µM in assay [5], 69 µM in the assay with NCI-H1703 and over 100 µM in the assay on A549. In addition, the inhibition result in the assay with PA-1 [8], in the assay on A2780 [9], in the assay on PA-1 [11] and in the assay with A2780 [12] was “Dose-Dependent Effect” each time.

Consider `CCC(=O)Nc1cccc(-c2cc(C(=O)NCc3c(C)cc(C)[nH]c3=O)c(C)c(N(CC)C3CCOCC3)c2)c1`, for which the IC50 with OAW-42, with BT-549, in the assay on HEY, in the assay with ES-2, in the assay with PA-1 [2] and with OVCAR-3 was over 100 µM throughout. Besides, the IC50 was over 100 µM in the assay with SK-BR-3; over 100 µM in the assay on MCF7; 34.4 µM in the assay on A2780 [4]; over 100 µM in the assay on SK-OV-3; 58.4 µM in the assay with 4T1; over 100 µM in assay [5]. For the same molecule, the IC50 with NCI-H1703 and in the assay on A549 was over 100 µM throughout.
